Target: Casein kinase 1 delta (CSKN1D) (Homo sapiens, UniProt P48730)
Assay: Casein kinase assay, CK1 delta
Format: biochemical
Settings: recombinant CSKN1D 5 nM, ATP 10 μM
Experimental: The recombinant protein Casein kinase 1 delta (CSKN1D) was added to the substrate solution in a concentration of 5 nM and gently mixed. Dilution series in of compounds of the present invention in DMSO were added to the reaction mixture, followed after 20 min by addition of a mixture of ATP and ^33P-ATP (specific activity 0.01 μCi/μl final) to a final concentration of 10 μM. Reactions were carried out at 25° C. for 120 min, followed by spotting the reactions onto P81 ion exchange filter paper. Unbound phosphate was removed by washing of the filters in 0.75% phosphoric acid. […] IC50 values and curve fits were obtained using the program Prism® (Graph Pad Software).

Casein kinase 1 delta (CSKN1D), sequence (P48730 whole entry): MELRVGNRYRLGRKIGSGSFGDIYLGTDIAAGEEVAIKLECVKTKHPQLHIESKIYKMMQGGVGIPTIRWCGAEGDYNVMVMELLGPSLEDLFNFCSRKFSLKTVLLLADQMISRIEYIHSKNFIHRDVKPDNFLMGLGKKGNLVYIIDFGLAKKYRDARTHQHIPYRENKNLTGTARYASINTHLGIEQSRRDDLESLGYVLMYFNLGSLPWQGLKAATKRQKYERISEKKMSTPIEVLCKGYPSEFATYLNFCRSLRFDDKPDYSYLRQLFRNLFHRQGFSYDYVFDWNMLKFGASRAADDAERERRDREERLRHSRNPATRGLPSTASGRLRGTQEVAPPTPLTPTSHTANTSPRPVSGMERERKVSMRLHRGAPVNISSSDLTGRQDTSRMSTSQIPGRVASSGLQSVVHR

| SMILES | IC50 [nM] |
| --- | --- |
| O=C(Nc1nc2cc3c(cc2[nH]1)OC(F)(F)O3)c1ccc([N+](=O)[O-])s1 [Compound 63, N-(2,2-difluoro-5H-[1,3]dioxolo[4′,5′:4,5]benzo[1,2-d]imidazol-6-yl)-5-nitrothiophene-2-carboxamide] | 200 to 1000 |
| O=C(Nc1nc2cc3c(cc2[nH]1)OC(F)(F)O3)c1sccc1Cl [Compound 64, 3-chloro-N-(2,2-difluoro-5H-[1,3]dioxolo[4′,5′:4,5]benzo[1,2-d]imidazol-6-yl)thiophene-2-carboxamide] | > 1000 |
| O=C(Nc1nc2cc3c(cc2[nH]1)OC(F)(F)O3)c1cccc([N+](=O)[O-])c1 [Compound 65, N-(2,2-difluoro-5H-[1,3]dioxolo[4′,5′:4,5]benzo[1,2-d]imidazol-6-yl)-3-nitrobenzamide] | < 200 |
| O=C(Nc1nc2cc3c(cc2[nH]1)OC(F)(F)O3)c1cccc(C(F)(F)F)c1 [Compound 66, N-(2,2-difluoro-5H-[1,3]dioxolo[4′,5′:4,5]benzo[1,2-d]imidazol-6-yl)-3-(trifluoromethyl)benzamide] | < 200 |
| O=C(Nc1nc2cc3c(cc2[nH]1)OC(F)(F)O3)c1ccccn1 [Compound 67, N-(2,2-difluoro-5H-[1,3]dioxolo[4′,5′:4,5]benzo[1,2-d]imidazol-6-yl)picolinamide] | > 1000 |
| O=C(Nc1nc2cc3c(cc2[nH]1)OC(F)(F)O3)c1cccc(F)c1 [Compound 70, N-(2,2-difluoro-5H-[1,3]dioxolo[4′,5′:4,5]benzo[1,2-d]imidazol-6-yl)-3-fluorobenzamide] | < 200 |
| O=C(Nc1nc2cc3c(cc2[nH]1)OC(F)(F)O3)c1cnco1 [Compound 71, N-(2,2-difluoro-5H-[1,3]dioxolo[4′,5′:4,5]benzo[1,2-d]imidazol-6-yl)oxazole-5-carboxamide] | 200 to 1000 |
| O=C(Nc1nc2cc3c(cc2[nH]1)OC(F)(F)O3)c1ccno1 [Compound 72, N-(2,2-difluoro-5H-[1,3]dioxolo[4′,5′:4,5]benzo[1,2-d]imidazol-6-yl)isoxazole-5-carboxamide] | 200 to 1000 |
| O=C(Nc1nc2cc3c(cc2[nH]1)OC(F)(F)O3)c1cc[nH]n1 [Compound 73, N-(2,2-difluoro-5H-[1,3]dioxolo[4′,5′:4,5]benzo[1,2-d]imidazol-6-yl)-1H-pyrazole-3-carboxamide] | > 1000 |
| CCN(CC)c1ccc(C(=O)Nc2nc3cc4c(cc3[nH]2)OC(F)(F)O4)cc1 [Compound 74, 4-(diethylamino)-N-(2,2-difluoro-5H-[1,3]dioxolo[4′,5′:4,5]benzo[1,2-d]imidazol-6-yl)benzamide] | 200 to 1000 |
| CN(C)c1ccc(C(=O)Nc2nc3cc4c(cc3[nH]2)OC(F)(F)O4)cc1 [Compound 75, N-(2,2-difluoro-5H-[1,3]dioxolo[4′,5′:4,5]benzo[1,2-d]imidazol-6-yl)-4-(dimethylamino)benzamide] | < 200 |
| O=C(Nc1nc2cc3c(cc2[nH]1)OC(F)(F)O3)c1ccc(NCc2ccccc2)cc1 [Compound 76, 4-(benzylamino)-N-(2,2-difluoro-5H-[1,3]dioxolo[4′,5′:4,5]benzo[1,2-d]imidazol-6-yl)benzamide] | < 200 |
| CCNc1ccc(C(=O)Nc2nc3cc4c(cc3[nH]2)OC(F)(F)O4)cc1 [Compound 77, N-(2,2-difluoro-5H-[1,3]dioxolo[4′,5′:4,5]benzo[1,2-d]imidazol-6-yl)-4-(ethylamino)benzamide] | < 200 |
| O=C(Nc1nc2cc3c(cc2[nH]1)OC(F)(F)O3)c1cccnc1 [Compound 78, N-(2,2-difluoro-5H-[1,3]dioxolo[4′,5′:4,5]benzo[1,2-d]imidazol-6-yl)nicotinamide] | < 200 |
| O=C(Nc1nc2cc3c(cc2[nH]1)OC(F)(F)O3)C1CCCCC1 [Compound 80, N-(2,2-difluoro-5H-[1,3]dioxolo[4′,5′:4,5]benzo[1,2-d]imidazol-6-yl)cyclohexanecarboxamide] | < 200 |

Reference: patent publication US20170240556A1, “BIFLUORODIOXALANE-AMINO-BENZIMIDAZOLE KINASE INHIBITORS FOR THE TREATMENT OF CANCER, AUTOIMMUNEINFLAMMATION AND CNS DISORDERS” (4SC DISCOVERY GMBH, priority 2012, published 2017)
